Results taken from EP0892802B1, “SPIRO(CYCLOPENT(B)INDOLE-PIPERIDINES) AND N-PHENYL-HYDRAZON INTERMEDIATES FOR THEIR PREPARATION, BOTH BEING ACETYLCHOLINESTERASE AND MAO INHIBITORS” (priority 1996, dated 1997).

Key:
[1] = target: T1, monoamine oxidase-A (Rattus norvegicus, UniProt P21396); assay: in vitro inhibition of monoamine oxidase assay (modified Kindt), MAO-A; type: biochemical, Male Wistar rats; conditions: rat whole brain minus cerebellum, mitochondrial P2 pellet; substrate [3H]-5-hydroxytryptamine 200 µM; preincubated 15 minutes, incubated 30 minutes at 37°C; log-probit analysis
T1 construct: serves as the tissue source for mitochondrial monoamine oxidase; from tissue; host or cells: rat whole brain minus cerebellum, P2 (crude mitochondrial) pellet
T1 sequence (P21396 1-526): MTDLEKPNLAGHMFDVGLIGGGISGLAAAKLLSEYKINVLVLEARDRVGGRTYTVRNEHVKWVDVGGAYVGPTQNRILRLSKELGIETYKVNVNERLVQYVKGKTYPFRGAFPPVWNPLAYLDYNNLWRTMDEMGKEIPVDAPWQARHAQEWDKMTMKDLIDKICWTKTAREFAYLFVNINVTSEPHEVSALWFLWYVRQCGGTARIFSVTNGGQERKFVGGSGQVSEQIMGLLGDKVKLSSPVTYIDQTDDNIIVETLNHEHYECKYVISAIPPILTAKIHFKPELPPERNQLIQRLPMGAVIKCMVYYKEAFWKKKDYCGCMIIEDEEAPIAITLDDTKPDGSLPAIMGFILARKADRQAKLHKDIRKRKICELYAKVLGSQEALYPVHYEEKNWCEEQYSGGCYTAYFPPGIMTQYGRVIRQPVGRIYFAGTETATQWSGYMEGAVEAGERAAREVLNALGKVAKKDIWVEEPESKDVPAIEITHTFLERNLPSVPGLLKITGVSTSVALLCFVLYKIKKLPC
Procedure: (§1) In this assay, a modification of an assay described by M. V. Kindt, et al., Europ.
The following reagents are prepared: • 1. Phosphate buffer (0.5 M), pH 7.4; 134.4 g dibasic sodium phosphate heptahydrate q.s. to 1 liter in distilled water (A) 17.3 g monobasic sodium phosphate q.s. to 250 ml in distilled water (B) Adjust pH of A to 7.4 by slowly adding B (volumes as needed) Dilute 1:10 in distilled water (0.05 M phosphate buffer, pH 7.4) • 2. 0.25 M Sucrose (phosphate buffered): 21.4 g sucrose, q.s. to 250 ml with 0.05 M phosphate buffer • 3. Substrate for monoamine oxidase-A: • a. serotonin creatine sulphate (5-hydroxytryptamine) is obtained from Sigma Chemical Company. A 5 mM stock solution is made up in 0.01 N-hydrochloric acid. The solution is used to dilute the specific activity of the [^3H]-hydroxytryptamine. • b. [^3H]-5-hydroxytryptamine binoxalate (20-30 Ci/mmol) is obtained from New England Nuclear. • c. Add 12 µl of [^3H]-5-hydroxytryptamine to 2 ml of the 5 mM 5-hydroxytryptamine solution. (Final amine concentration in the assay is 200 µM: see below.) • 4. Substrate for monoamine oxidase-B • a. β-phenethylamine is obtained from Sigma Chemical Company. A 5 mM stock solution is made up in 0.01 N-hydrochloric acid. The solution is used to dilute the specific activity of the [^14C]-β-phenethylamine. • b. β-[ethyl-1-^14C]-phenethylamine hydrochloride (40-50 mCi/mmol) is obtained from New England Nuclear. • c. Add 12 µl of [^14C]-β-phenethylamine to 2 ml of the 5 mM β-phenethylamine solution. (Final amine concentration in the assay is 200 µM: see below.) • 5. Equal amounts of monoamine oxidase-A (5-hydroxytryptamine) and monoamine oxidase-B (β-phenethylamine) substrates are combined for simultaneously testing both monoamine oxidase types, i.e., mixed stock solution of 2.5 mM 5-hydroxytryptamine and 2.5 mM β-phenethylamine. 40 µl of this mixed solution gives a 200 µM final concentration of each amine in the assay. […]

[2] = target: T2, monoamine oxidase-B (Rattus norvegicus, UniProt P19643); assay: in vitro inhibition of monoamine oxidase assay (modified Kindt), MAO-B; type: biochemical, Male Wistar rats; conditions: rat whole brain minus cerebellum, mitochondrial P2 pellet; substrate [14C]-β-phenethylamine 200 µM; preincubated 15 minutes, incubated 30 minutes at 37°C; log-probit analysis
T2 construct: serves as the tissue source for mitochondrial monoamine oxidase; from tissue; host or cells: rat whole brain minus cerebellum, P2 (crude mitochondrial) pellet
T2 sequence (P19643 1-520): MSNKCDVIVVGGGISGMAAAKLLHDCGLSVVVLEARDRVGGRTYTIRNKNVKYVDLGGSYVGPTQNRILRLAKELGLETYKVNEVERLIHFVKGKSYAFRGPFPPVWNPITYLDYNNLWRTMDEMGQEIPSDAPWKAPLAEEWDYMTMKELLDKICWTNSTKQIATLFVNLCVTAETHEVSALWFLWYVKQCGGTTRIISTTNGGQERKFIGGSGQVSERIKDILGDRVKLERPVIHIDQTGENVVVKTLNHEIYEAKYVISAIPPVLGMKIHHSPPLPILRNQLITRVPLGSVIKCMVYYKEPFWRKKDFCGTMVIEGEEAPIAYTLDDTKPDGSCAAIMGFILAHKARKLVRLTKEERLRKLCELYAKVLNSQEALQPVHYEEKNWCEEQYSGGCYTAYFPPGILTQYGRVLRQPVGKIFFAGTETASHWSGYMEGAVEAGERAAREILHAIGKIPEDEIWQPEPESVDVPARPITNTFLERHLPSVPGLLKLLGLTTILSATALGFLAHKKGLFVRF
Procedure: as §1
The following reagents are prepared: • 1. Phosphate buffer (0.5 M), pH 7.4; 134.4 g dibasic sodium phosphate heptahydrate q.s. to 1 liter in distilled water (A) 17.3 g monobasic sodium phosphate q.s. to 250 ml in distilled water (B) Adjust pH of A to 7.4 by slowly adding B (volumes as needed) Dilute 1:10 in distilled water (0.05 M phosphate buffer, pH 7.4) • 2. 0.25 M Sucrose (phosphate buffered): 21.4 g sucrose, q.s. to 250 ml with 0.05 M phosphate buffer • 3. Substrate for monoamine oxidase-A: • a. serotonin creatine sulphate (5-hydroxytryptamine) is obtained from Sigma Chemical Company. A 5 mM stock solution is made up in 0.01 N-hydrochloric acid. The solution is used to dilute the specific activity of the [^3H]-hydroxytryptamine. • b. [^3H]-5-hydroxytryptamine binoxalate (20-30 Ci/mmol) is obtained from New England Nuclear. • c. Add 12 µl of [^3H]-5-hydroxytryptamine to 2 ml of the 5 mM 5-hydroxytryptamine solution. (Final amine concentration in the assay is 200 µM: see below.) • 4. Substrate for monoamine oxidase-B • a. β-phenethylamine is obtained from Sigma Chemical Company. A 5 mM stock solution is made up in 0.01 N-hydrochloric acid. […]

[3] = target: T3, acetylcholinesterase (Rattus norvegicus, UniProt P37136); assay: biochemical; set-up: species or system Male Wistar rats; conditions: rat corpora striata homogenate; preincubated 10 minutes at 37°C; acetylthiocholine substrate 5 millimolar final; log-probit analysis; read-out: Inhibition of Acetylcholinesterase Activity IC50
T3 construct: corpora striata dissected free, weighted and homogenized in 19 volumes; from tissue; host or cells: rat brain corpora striata, crude homogenate
T3 sequence (P37136 32-614): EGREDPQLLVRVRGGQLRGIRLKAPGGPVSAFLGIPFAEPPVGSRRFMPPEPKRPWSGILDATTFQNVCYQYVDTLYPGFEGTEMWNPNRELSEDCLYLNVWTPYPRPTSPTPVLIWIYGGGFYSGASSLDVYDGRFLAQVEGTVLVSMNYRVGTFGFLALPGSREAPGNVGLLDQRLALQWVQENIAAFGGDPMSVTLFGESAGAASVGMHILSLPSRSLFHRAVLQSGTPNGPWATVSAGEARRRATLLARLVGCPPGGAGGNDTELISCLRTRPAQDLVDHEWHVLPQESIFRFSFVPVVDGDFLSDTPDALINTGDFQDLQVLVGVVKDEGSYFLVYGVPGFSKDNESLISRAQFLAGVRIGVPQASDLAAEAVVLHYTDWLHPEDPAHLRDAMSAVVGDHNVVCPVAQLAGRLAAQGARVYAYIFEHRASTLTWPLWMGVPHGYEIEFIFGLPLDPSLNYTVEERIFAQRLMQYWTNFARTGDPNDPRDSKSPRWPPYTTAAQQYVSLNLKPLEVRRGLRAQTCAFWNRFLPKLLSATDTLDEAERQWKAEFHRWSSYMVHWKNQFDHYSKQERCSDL
Procedure: 0.05M Phosphate Buffer (pH 7.2) A solution of monobasic sodium phosphate monohydrate (6.85 g) in distilled water (100 ml) is added to a solution of dibasic sodium phosphate heptahydrate (13.4 g) and distilled water (100 ml) until a pH of 7.2 was attained. The solution was diluted 1 to 10 with distilled water. • 2. […] 5,5-Dithiobisnitrobenzoic acid in Buffer The 0.05M Phosphate Buffer (pH 7.2) was added to 5.5-dithiobisnitrobenzoic acid to a total volume of 100 ml, i.e., a quantity sufficient (gs) to 100 ml. • 4. Stock Solution of Drug A 2 millimolar stock solution of the test drug is prepared in a quantity sufficient of either acetic acid or dimethyl sulfoxide to volume with 5,5-dithiobisnitrobenzoic acid in Buffer. […]
Male Wistar rats are decapitated, brains rapidly removed, corpora striata dissected free, weighted and homogenized in 19 volumes (approximately 7 mg protein/ml) of 0.05M Phosphate Buffer (pH 7.2) using a Potter-Elvejhem homogenizer. […] Enzyme activity is measured with a Beckman DU-50 spectrophotometer with the following software and instrument settings: • 1. […]
Blank values are determined for each run to control for non-enzymatic hydrolysis of substrate and these values are automatically subtracted by the Kindata program available on kinetics soft-pac module. This program also calculates the rate of absorbance change for each cuvette. […]

COc1cccc(CN2CCC3(CCc4c3n(C)c3ccccc43)CC2)c1 [1,4-Dihydro-1'-(3-methoxyphenyl)methyl-4-methylspiro[cyclopent[b]indole-3(2H), 4'piperidine]]
IC50 [1]: 51.2 µM

COc1ccc(CN2CCC3(CCc4c3n(C)c3ccccc43)CC2)cc1 [1,4-Dihydro-1'-(4-methoxyphenyl)methyl-4-methylspiro[cyclopent[b]indole-3(2H), 4'-piperidine]]
IC50 [2]: 125 µM
IC50 [1]: 98.6 µM
IC50 [3]: 65.2 µM

CNC(=O)Oc1ccc2c(c1)c1c(n2C)C2(CC1)CCN(Cc1ccccc1)CC2 [1,4-Dihydro-4-methyl-7-methylaminocarbonyloxy-1'-phenylmethylspiro[cyclopent[b]indole-3(2H), 4'-piperidine]]
IC50 [3]: 10.5 µM

COc1cc(Br)c2oc(C3CCNCC3)cc2c1 [brofaromine, reference compound]
IC50 [1]: 0.18 µM
